Patent US5567688A, “L-nucleosides for the treatment of hepatitis B-virus” (priority 1995, dated 1996)
Read-outs that look alike come from different tables or passages of the source.

What was measured:
[1] = tested on: EBV; assay: Inhibition of EBV production in H1 cells (bioassay, EBV DP activity in superinfected Raji cells); format: cell-based; conditions: for IC90: human gammaherpesvirus 4, Raji, 120 h
Method: (§1) H1 cells were maintained in […] growth for two days prior to the initiation of treatment. The cells were centrifuged at 600 g for 10 min. at room temperature to separate them from the medium containing pre-existing virus particles. The H1 cells were seeded in 24 well plates at a density of 1×10^5 cells per well in 2 ml of fresh medium with or without drug and incubated at 37° C. for 5 days. The medium containing virion was saved and used for evaluating the inhibitory effect of drugs on virus production and infectivity by use of a bioassay. The virion were pelleted from the cell free medium by centrifugation at 45,000 rpm for 90 min. in a SW-50 Ti rotor (Beckman). The virion were resuspended in 1 ml growth medium and then used to infect 1×10^6 Raji cells for 48 hours. Since the level of EBV DP activity in Raji cells post superinfection is proportional to the number of virions added (unpublishedresult), the EBV specific DP activity induced was able to be measured. The inhibitory drug effect Was calculated by comparing the EBV DP activity to multiple dilution controls.
Inhibitory effect of compounds on EBV: The CD50 was performed by
exposing H1 cells to different concentrations of the compounds in normal
growth medium at 37° C. for 72 hours; the cells were then counted
and compared with controls. H1 cells were treated for 5 days and the
ID90 was determined by bioassay.

[2] = Cytotoxicity in CEM cells (CD50); format: cell-based; conditions: human
[3] = Cytotoxicity (CD50) of Table I, cell line not given; format: cell-based
[4] = Cytotoxicity in H1 cells (cell count); format: cell-based; conditions: 37° C., read-out: CD50
[5] = Cytotoxicity in MT2 cells (CD50); format: cell-based; conditions: human
[6] = tested on: HBV; assay: Inhibition of HBV DNA in 2.2.15 cells (Southern analysis); format: cell-based, HBV (human hepatoma 2.2.15 cells); conditions: for Therapeutic Index (DC50/ID50): HBV, CD50 / anti-HBV ID50; for IC50: Hepatitis B virus, 144 h, 2.2.15 cells, 6-day treatment, 50% inhibition of the DNA, read-out: Anti-HBV Activity ID50
Method: Human hepatoma cells with HBV (2.2.15 cells) were used in the assay. These cells were grown to confluence in minimal essential medium with 10% fetal bovine serum. The media was changed at 3-day intervals. At confluence the treatment with the drugs was initiated and then continued for three days. Another addition of the same concentration of the drug was given at this point after removal of the media from the cultures and cultures maintained for an additional period of 3 days. The medium after the 6-day treatment was harvested and the viral particles precipitated by the polyethylene glycol method. The particles were subsequently digested and then processed for Southern analysis. The blots were hybridizied to an HBV-specific probe and vital DNA amounts assessed in comparison to DNA levels from cultures not treated with the drugs. The genomic DNA was digested with Hind III and subjected to Southern analysis. Levels of the episomal DNA were determined in relation to the integrated HBV DNA. The drug concentrations that cause 50% inhibition of the DNA (ID50) as compared to the controls were calculated.

[7] = tested on: mitochondrial DNA; assay: Mitochondrial DNA content in H1 cells (slot blot assay); format: cell-based, human; conditions: 1 mM, 6 days
Method: as §1
Slot Blot Assay--The amount of mitochondrial DNA was measured by the slot blot method (2). […] The amount of mitochondrial DNA in the treated and non-treated H1 cells was quantified by densitometer (LKB Ultroscan XL).

[8] = EBV, H1 cells treated for 5 days, bioassay, read-out: ID90 (the source's name)

Row | Structure (SMILES) | IC90 [1, 8] [µM] | Therapeutic Index (CD50/ID90) ([1]; EBV, H1 cells) | CC50 [2] [µM] | CC50 [3] [µM] | CC50 at 72 h [4] [µM] | CC50 [5] [µM] | Therapeutic Index (DC50/ID50) [6] | IC50 [6] [µM] | Inhibitory effect on EBV (in words) ([1]; EBV, H1 cells, up to 100 μM) | Inhibition of mitochondrial DNA content in H1 cells [7] | IC90 ([1]; read-out: ID90) [µM]
1 | Nc1nc2c(ncn2CCC(CO)CO)c(=O)[nH]1 [PCV] | 20 ± 2 | – | – | – | – | – | – | – | – | – | –
2 | CCc1cn([C@@H]2O[C@H](CO)[C@@H](O)[C@@H]2F)c(=O)[nH]c1=O [D-FEAU] | 1 | > 400 | 90 | > 400 | > 400 | 100 | > 80 | 5 | – | – | –
3 | Nc1nc2c(ncn2COCCO)c(=O)[nH]1 [ACV] | 50 ± 8 | – | – | – | – | – | – | – | – | – | –
4 | Nc1nc(=O)n([C@H]2O[C@@H](CO)[C@H](O)[C@H]2F)cc1I [L-FIAC, N1-(2'-Deoxy-2'-fluoro-β-L-arabinofuranosyl)-5-iodocytosine] | – | – | – | – | – | – | – | – | inactivity up to 100 μM | – | –
5 | Cc1cn([C@H]2O[C@@H](CO)[C@H](O)[C@H]2F)c(=O)[nH]c1=O [L-FMAU, N1-(2'-Deoxy-2'-fluoro-β-L-arabinofuranosyl)-thymine] | 5 ± 0.8 | 182 | > 100 | 913 ± 70 | 913 ± 70 | 100 | 9130 | – | – | No inhibition | –
6 | O=C(O)P(=O)(O)O [PFA] | 75 ± 5 | – | – | – | – | – | – | – | – | – | –
7 | Nc1nc2c(ncn2COC(CO)CO)c(=O)[nH]1 [DHPG] | 5 ± 1 | – | – | – | – | – | – | – | – | – | –
8 | Cc1cn([C@@H]2O[C@H](CO)[C@@H](O)[C@@H]2F)c(=O)[nH]c1=O [D-FMAU] | 0.1 | < 100 | 10 | < 10 | < 10 | 8 to 9 | < 5 | – | – | – | –
9 | CCc1cn([C@H]2O[C@@H](CO)[C@H](O)[C@H]2F)c(=O)[nH]c1=O [L-FEAU, N1-(2'-Deoxy-2'-fluoro-β-L-arabinofuranosyl)-5-ethyluracil] | – | 20 | > 100 | > 400 | > 400 | 100 | > 80 | > 5 | – | – | 20
